These results are taken from ChEMBL document CHEMBL1201862, “PubChem BioAssay data set” (2004).

Test systems include SF-539; T47D; OVCAR-5; LOX IMVI; Hs-578T; UO-31; SN12C; IGROV-1; KM12; HCT-15; SF-295; HOP-92; SK-MEL-28; RXF 393; MDA-MB-435; HOP-62; SNB-75; SK-OV-3.
Assay in all cases: NCI anticancer screen, dose series, 48 h

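Grown in 96-well plates, cells were treated for 48 hours with each compound at five concentrations. Insufficient inhibition: endpoint recorded as highest concentration tested. Here, GI50 denotes the concentration required for 50% inhibition of growth.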 Active and inactive are the calls of the source. Cut-off read from the data, not from the text of the source: active = GI50 up to about 1.1 µM and inactive = higher. Some results are limits rather than exact numbers.

`COc1ccc(C(=O)N=C2N(c3ccccc3)C(=N/c3ccccc3)/C(=N\c3ccccc3)N2c2ccccc2)cc1`: the GI50 was 35 µM (inactive) in the assay on SF-539; > 58.6 µM (inactive) in the assay on T47D; > 75.7 µM (inactive) in the assay on OVCAR-5; 49 µM (inactive) with LOX IMVI; 7.78 µM (inactive) with Hs-578T; > 100 µM (inactive) in the assay with UO-31. Also, the GI50 is > 67.1 µM (inactive) with SN12C; 54 µM (inactive) in the assay on IGROV-1; > 61.2 µM (inactive) in the assay with KM12; over 100 µM in the assay with HCT-15; 33.3 µM (inactive) in the assay on SF-295; 2.9 µM (inactive) with HOP-92. Moreover, the GI50 in the assay with SK-MEL-28 was 18.3 µM (inactive); with RXF 393, 2.26 µM (inactive); with MDA-MB-435 it was 88.3 µM (inactive); in the assay on HOP-62, 8.63 µM (inactive); in the assay on SNB-75, 7.82 µM (inactive); in the assay with SK-OV-3 it was 33.7 µM (inactive).

Consider `CCCCC1=NNC(=O)C1`, for which the GI50 in the assay with SF-539 is > 100 µM (inactive); with T47D, > 100 µM (inactive); in the assay on OVCAR-5, > 100 µM (inactive); in the assay on Hs-578T, 4.9 µM (inactive); in the assay on UO-31 it was > 100 µM (inactive); in the assay on SN12C, > 100 µM (inactive). The GI50 is > 100 µM (inactive) in the assay with IGROV-1; > 100 µM (inactive) with KM12; over 100 µM with HCT-15; > 100 µM (inactive) with SF-295; > 100 µM (inactive) with HOP-92; > 100 µM (inactive) in the assay on SK-MEL-28. The GI50 with RXF 393, in the assay with MDA-MB-435, with HOP-62, in the assay on SNB-75 and with SK-OV-3 was > 100 µM (inactive) each time.

With `CC1(C)OC2OC(C(=O)c3ccccc3)C3OC(C)(C)OC3C2O1` (stereo not drawn), the GI50 in the assay with SF-539, with T47D, with OVCAR-5, with LOX IMVI, in the assay with Hs-578T and in the assay with UO-31 was > 100 µM (inactive) each time. Also, the GI50 was > 100 µM (inactive) in the assay on SN12C; > 100 µM (inactive) in the assay on IGROV-1; > 100 µM (inactive) with KM12; over 100 µM with HCT-15; > 100 µM (inactive) with SF-295; > 100 µM (inactive) in the assay with HOP-92. For the same compound, the GI50 in the assay with RXF 393, with MDA-MB-435, in the assay on HOP-62, with SNB-75 and in the assay with SK-OV-3 was > 100 µM (inactive) in each case.

On to `COc1ccc(-c2c(C(C)=O)c(C)n(C3OC(CO)C(O)C(O)C3O)c(=S)c2C#N)cc1` (stereo not drawn), for which the GI50 in the assay with SF-539 is 36.1 µM (inactive); in the assay with T47D it was 34.6 µM (inactive); in the assay on OVCAR-5 it was > 100 µM (inactive); in the assay with LOX IMVI it was 45.5 µM (inactive); in the assay on Hs-578T, 98.2 µM (inactive); in the assay with UO-31, > 100 µM (inactive). Moreover, the GI50 with SN12C was 50.6 µM (inactive); with IGROV-1, > 100 µM (inactive); in the assay on KM12, 90.6 µM (inactive); in the assay with HCT-15, over 100 µM; in the assay with SF-295 it was 72.9 µM (inactive); with SK-MEL-28, 44.6 µM (inactive). Further, the GI50 is 73.1 µM (inactive) in the assay with RXF 393; 72.6 µM (inactive) in the assay with MDA-MB-435; > 100 µM (inactive) in the assay with HOP-62; 80.9 µM (inactive) in the assay with SNB-75; > 100 µM (inactive) in the assay on SK-OV-3.

Take `CCOC(=O)c1sc2nc(SC)nc3c2c1NCN3C`: the GI50 with T47D was 6.79 µM (inactive); with OVCAR-5 it was 36.1 µM (inactive); with LOX IMVI, 36 µM (inactive); with Hs-578T, 20.1 µM (inactive); in the assay on UO-31, 11.9 µM (inactive); in the assay with SN12C it was 30.6 µM (inactive). Also, the GI50 in the assay with IGROV-1 was 13 µM (inactive); with KM12, > 100 µM (inactive); in the assay with HCT-15, over 100 µM; with SF-295, 27.9 µM (inactive); in the assay with HOP-92, 11.5 µM (inactive); in the assay with SK-MEL-28, > 100 µM (inactive). For the same compound, the GI50 is 13.2 µM (inactive) in the assay with RXF 393; > 100 µM (inactive) in the assay with MDA-MB-435; 15.1 µM (inactive) in the assay on HOP-62; 5.78 µM (inactive) in the assay with SNB-75; 16.1 µM (inactive) in the assay with SK-OV-3.

Take `CCCCCCCCC/C=C1\CC(CO)(COC(=O)c2ccccc2)OC1=O` (stereo not drawn): the GI50 in the assay on T47D was 29.1 µM (inactive); in the assay on OVCAR-5 it was 15.9 µM (inactive); in the assay with Hs-578T it was 17.3 µM (inactive); with UO-31 it was 16.3 µM (inactive); in the assay with SN12C, 19.2 µM (inactive); in the assay on IGROV-1 it was 32.1 µM (inactive). The GI50 with KM12 was 21.4 µM (inactive); in the assay on HCT-15, 20.7 µM; with SF-295, 21.2 µM (inactive); in the assay on HOP-92 it was 9.82 µM (inactive); in the assay with SK-MEL-28 it was 16.7 µM (inactive); in the assay on RXF 393 it was 21.1 µM (inactive). Further, the GI50 with MDA-MB-435 was 16 µM (inactive); with HOP-62 it was 14.8 µM (inactive); in the assay with SNB-75, 15.9 µM (inactive); in the assay on SK-OV-3 it was 18.3 µM (inactive).

For `O=C1OC(c2ccco2)=N/C1=C\c1ccc(Cl)c(Cl)c1`, the GI50 in the assay with SF-539 is 50 µM (inactive); in the assay on T47D, 40.9 µM (inactive); in the assay with OVCAR-5 it was > 100 µM (inactive); in the assay on LOX IMVI, > 100 µM (inactive); with Hs-578T it was 36.1 µM (inactive); in the assay on SN12C it was > 100 µM (inactive). Moreover, the GI50 was > 100 µM (inactive) in the assay with IGROV-1; > 100 µM (inactive) in the assay with KM12; over 100 µM in the assay on HCT-15; > 100 µM (inactive) in the assay with SF-295; > 100 µM (inactive) in the assay with HOP-92; > 100 µM (inactive) in the assay with SK-MEL-28. In addition, the GI50 in the assay on RXF 393 was 22 µM (inactive); in the assay with MDA-MB-435, > 100 µM (inactive); in the assay with HOP-62 it was 27.4 µM (inactive); in the assay with SNB-75 it was 53.8 µM (inactive); with SK-OV-3 it was 47.2 µM (inactive).

Turning to `Cc1ccnc(NC(=S)Nc2ccccc2Cl)c1`, the GI50 is > 100 µM (inactive) with SF-539; > 100 µM (inactive) in the assay on T47D; > 100 µM (inactive) in the assay with OVCAR-5; > 100 µM (inactive) in the assay with LOX IMVI; 44.7 µM (inactive) in the assay with Hs-578T; > 100 µM (inactive) in the assay on UO-31. Also, the GI50 in the assay with SN12C was > 100 µM (inactive); with IGROV-1 it was 61.2 µM (inactive); in the assay with KM12 it was > 100 µM (inactive); with HCT-15, over 100 µM; with SF-295, 87.7 µM (inactive); with SK-MEL-28 it was > 100 µM (inactive). Further, the GI50 is > 100 µM (inactive) in the assay on RXF 393; > 100 µM (inactive) in the assay on MDA-MB-435; 34.7 µM (inactive) in the assay with HOP-62; 13 µM (inactive) with SNB-75; 83.8 µM (inactive) in the assay on SK-OV-3.

Take `CCc1nc(N)c2nc(-c3ccc(C#N)cc3)oc2n1`: the GI50 with SF-539, with T47D, in the assay on OVCAR-5, with LOX IMVI, in the assay with Hs-578T and in the assay on UO-31 was > 100 µM (inactive) in each case. Besides, the GI50 with SN12C is > 100 µM (inactive); with IGROV-1, > 100 µM (inactive); with KM12 it was > 100 µM (inactive); in the assay with HCT-15 it was over 100 µM; with SF-295, > 100 µM (inactive); in the assay on HOP-92, > 100 µM (inactive). The GI50 in the assay on SK-MEL-28, in the assay on RXF 393, with MDA-MB-435, in the assay on HOP-62 and in the assay with SNB-75 was > 100 µM (inactive) each time.

With `CC(C)(C)CC(C)(C)c1cc(O)c(O)c(CN2CCCCC2)c1`, the GI50 with T47D is 11.6 µM (inactive); in the assay with OVCAR-5 it was 17.4 µM (inactive); with LOX IMVI, 12 µM (inactive); with Hs-578T it was 15.6 µM (inactive); with UO-31 it was 13.3 µM (inactive); in the assay with SN12C it was 15.7 µM (inactive). Besides, the GI50 in the assay with IGROV-1 was 17.5 µM (inactive); in the assay with KM12 it was 17.5 µM (inactive); with HCT-15, 4.01 µM; in the assay on SF-295 it was 17.5 µM (inactive); in the assay on HOP-92, 17.5 µM (inactive); with SK-MEL-28 it was 17.7 µM (inactive). Besides, the GI50 is 12.8 µM (inactive) in the assay on RXF 393; 16.9 µM (inactive) in the assay with MDA-MB-435; 15.5 µM (inactive) in the assay with HOP-62; 17.7 µM (inactive) in the assay with SNB-75; 19.8 µM (inactive) in the assay with SK-OV-3.

As for `O=C1c2cc3c(cc2CC12Cc1ccc4c(c1C2=O)CCC4)CCC3` (stereo not drawn), the GI50 in the assay with SF-539, in the assay with T47D, in the assay on OVCAR-5, in the assay with LOX IMVI, in the assay on Hs-578T and in the assay with UO-31 was > 100 µM (inactive) throughout. For the same compound, the GI50 was > 100 µM (inactive) with IGROV-1; over 100 µM in the assay with HCT-15; > 100 µM (inactive) in the assay on SF-295; > 100 µM (inactive) in the assay on HOP-92; > 100 µM (inactive) in the assay with SK-MEL-28; > 100 µM (inactive) with RXF 393. Also, the GI50 in the assay with MDA-MB-435 is > 100 µM (inactive); in the assay on HOP-62, 74 µM (inactive); in the assay with SNB-75, > 100 µM (inactive); in the assay on SK-OV-3, 43.8 µM (inactive).

Consider `O=C(O)CNCCc1ccccc1`, for which the GI50 in the assay with T47D, with OVCAR-5, with LOX IMVI, with Hs-578T, with UO-31 and in the assay with SN12C was > 100 µM (inactive) in each case. Besides, the GI50 in the assay with IGROV-1 was > 100 µM (inactive); in the assay on KM12 it was > 100 µM (inactive); with HCT-15, over 100 µM; with SF-295, > 100 µM (inactive); in the assay on HOP-92, > 100 µM (inactive); in the assay on SK-MEL-28 it was > 100 µM (inactive). In addition, the GI50 with RXF 393, in the assay on MDA-MB-435, with HOP-62, in the assay on SNB-75 and in the assay on SK-OV-3 was > 100 µM (inactive) each time.
